In PubChem BioAssay (NCI):
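Tested at 5 concentrations; 48 h exposure; 96-well plates; endpoints linearly interpolated, else capped at highest concentration. At the TGI there is no net growth.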

Tests used:
Assay in all cases: inhibition of tumour cell growth, NCI panel, 48 h
786-0 renal = tested on: 786-0 renal
A498 renal = tested on: A498 renal
CCRF-CEM leukemia = tested on: CCRF-CEM leukemia
HCC-2998 colon = tested on: HCC-2998 colon
HCT-15 colon = tested on: HCT-15 colon
HOP-62 NSCLC = tested on: HOP-62 NSCLC
HOP-92 NSCLC = tested on: HOP-92 NSCLC
MDA-MB-231 breast = tested on: MDA-MB-231 breast
NCI-H226 lung = tested on: NCI-H226 lung
NCI-H23 lung = tested on: NCI-H23 lung
NCI-H460 lung = tested on: NCI-H460 lung
OVCAR-8 ovarian = tested on: OVCAR-8 ovarian
SF-268 CNS = tested on: SF-268 CNS
SF-295 CNS = tested on: SF-295 CNS
U251 CNS = tested on: U251 CNS
UACC-257 melanoma = tested on: UACC-257 melanoma

Row | SMILES | TGI (786-0 renal) | TGI (A498 renal) | TGI (CCRF-CEM leukemia) | TGI (HCC-2998 colon) | TGI (HCT-15 colon) | TGI (HOP-62 NSCLC) | TGI (HOP-92 NSCLC) | TGI (MDA-MB-231 breast) | TGI (NCI-H226 lung) | TGI (NCI-H23 lung) | TGI (NCI-H460 lung) | TGI (OVCAR-8 ovarian) | TGI (SF-268 CNS) | TGI (SF-295 CNS) | TGI (U251 CNS) | TGI (UACC-257 melanoma)
1 | CC(=N\N)/C(C)=N/N=C(C)/C(C)=N/N=C(C)/C(C)=N/N=C(C)/C(C)=N/N | > 100 µM | > 100 µM | > 100 µM | > 100 µM | > 100 µM | > 100 µM | > 100 µM | > 100 µM | > 100 µM | > 100 µM | > 100 µM | > 100 µM | > 100 µM | > 100 µM | > 100 µM | > 100 µM
2 | Cc1ccc(C2=Nc3cc(C)c(Cl)cc3S(=O)(=O)NN2)cc1 | > 100 µM | > 100 µM | > 100 µM | > 100 µM | > 100 µM | > 100 µM | > 100 µM | > 100 µM | > 100 µM | > 100 µM | > 100 µM | > 100 µM | > 100 µM | > 100 µM | > 100 µM | > 100 µM
3 | O=C1c2c(Cl)c(Cl)c(Cl)c(Cl)c2C(=O)N1CCN(c1c(Cl)ssc1=O)c1c(Cl)ssc1=O | 32.8 µM | > 100 µM | 72 µM | 58.8 µM | 41.1 µM | > 100 µM | 35.5 µM | > 100 µM | > 100 µM | > 100 µM | > 100 µM | 44.6 µM | > 100 µM | > 100 µM | > 100 µM | 31.5 µM
4 | CCOC(=O)CN1C(=O)c2c(c(C)n(-c3ccccc3)c2C)C1=O | > 100 µM | > 100 µM | > 100 µM | > 100 µM | > 100 µM | > 100 µM | > 100 µM | > 100 µM | > 100 µM | > 100 µM | > 100 µM | > 100 µM | > 100 µM | > 100 µM | > 100 µM | > 100 µM
